How the values were obtained:
Type in all cases: cell-based
[1] = system: E. coli UBMS 89-2 (Sensitive); test: MIC, agar dilution; settings: E. coli UBMS 89-2 Tet Sens.; Table IA; unit assumed
E. faecalis ATCC 29212 = test: MIC, agar dilution; settings: E. faecalis ATCC 29212; Table IA; unit assumed
S. aureus NEMC 8769/89-4 = test: MIC, agar dilution (Table IA); settings: unit assumed
[2] = system: S. aureus UBMS 90-2 (tetM); test: MIC, agar dilution; settings: S. aureus UBMS 90-2 TetM; Table IA; unit assumed
E. coli #311 (MP) = test: MIC, agar dilution (Table IA); settings: unit assumed
[3] = system: S. aureus UBMS 88-5 (tetM); test: MIC, agar dilution; settings: S. aureus UBMS 88-5 TetM; Table IA; unit assumed
[4] = system: S. aureus IVES 1983 (meth. resistant); test: MIC, agar dilution; settings: S. aureus IVES 1983; Table IA; unit assumed
[5] = system: Ps. acruginosa ATCC 27853; test: MIC, agar dilution (Table IA); settings: unit assumed
[6] = system: S. aureus Smith (Sensitive); test: MIC, agar dilution; settings: S. aureus SMITH (MP); Table IA; unit assumed
[7] = system: S. aureus ATCC 29213 (Sensitive); test: MIC, agar dilution; settings: S. aureus ATCC 29213; Table IA; unit assumed
E. coli J2175 = test: MIC, agar dilution (Table IA); settings: unit assumed
[8] = system: S. aureus UBMS 88-7 (tetK); test: MIC, agar dilution; settings: S. aureus UBMS 88-7 TetK; Table IA; unit assumed
E. coli UBMS 90-5 = test: MIC, agar dilution (Table IA); settings: unit assumed
E. coli UBMS 88-1 (tetB) = test: MIC, agar dilution; settings: E. coli UBMS 88-1 TetB; Table IA; unit assumed
E. coli MC4100 TetB = test: MIC, agar dilution (Table IA); settings: unit assumed
E. coli BAJ9003 = test: MIC, agar dilution (Table IA); settings: unit assumed
[9] = system: S. aureus UBMS 88-4 (Sensitive); test: MIC, agar dilution; settings: S. aureus UBMS 88-4; Table IA; unit assumed
[10] = system: S. haemolyticus AVAH 88-3; test: MIC, agar dilution; settings: S. hemolyticus AVHAH 88-3; Table IA; unit assumed
[11] = system: S. aureus UBMS 90-1 (tetM); test: MIC, agar dilution; settings: S. aureus UBMS 90-1 TetM; Table IA; unit assumed
E. coli PRP1 TetA = test: MIC, agar dilution (Table IA); settings: unit assumed
E. coli UBMS 89-1 (tetM) = test: MIC, agar dilution; settings: E. coli UBMS 89-1 TetM; Table IA; unit assumed
E. coli J3272 TetC = test: MIC, agar dilution (Table IA); settings: unit assumed
E. coli MC4100 Tet sens. = test: MIC, agar dilution (Table IA); settings: unit assumed
E. coli ATCC 25922 = test: MIC, agar dilution; settings: E. coli ATCC 25922; Table IA; unit assumed
[12] = system: S. aureus IVES 2943 (meth. resistant); test: MIC, agar dilution; settings: S. aureus IVES 2943; Table IA; unit assumed
[13] = system: S. aureus UBMS 90-3 (Sensitive); test: MIC, agar dilution; settings: S. aureus UBMS 90-3; Table IA; unit assumed
S. mariescens FDOR 8733 = test: MIC, agar dilution (Table IA); settings: unit assumed
E. coli J3272 TetD = test: MIC, agar dilution (Table IA); settings: unit assumed
[14] = system: X. maltophilia NEMC 87210; test: MIC, agar dilution (Table IA); settings: unit assumed
S. aureus ROSE (MP) = test: MIC, agar dilution (Table IA); settings: unit assumed
E. coli UBMS 90-4 (tetM) = test: MIC, agar dilution; settings: E. coli UBMS 90-4 TetM; Table IA; unit assumed
E. faecalis 12201 = test: MIC, agar dilution; settings: Enterococcus 12201; Table IA; unit assumed

## CN(C)CCCC(=O)Nc1cc(N(C)C)c2c(c1O)C(=O)C1=C(O)[C@]3(O)C(=O)C(C(N)=O)=C(O)[C@@H](N(C)C)C3CC1C2.Cl.Cl (stereo partly drawn) [ZZ, [4S-(4alpha,12aalpha)]-4,7-Bis(dimethylamino)-9-[[4-(dimethylamino)-1-oxobutyl]amino]-1,4,4a,5,5a,6,11,12a-octahydro-3,10,12,12a-tetrahydroxy-1,11-dioxo-2-naphthacenecarboxamide dihydrochloride]
[1]
  Antibacterial activity (MIC): 16 µg/mL
E. faecalis ATCC 29212
  Antibacterial activity (MIC): 4 µg/mL
S. aureus NEMC 8769/89-4
  Antibacterial activity (MIC): 1 µg/mL
[2]
  Antibacterial activity (MIC): 4 µg/mL
E. coli #311 (MP)
  Antibacterial activity (MIC): 16 µg/mL
[3]
  Antibacterial activity (MIC): 8 µg/mL
[4]
  Antibacterial activity (MIC): > 32 µg/mL
[5]
  Antibacterial activity (MIC): > 32 µg/mL
[6]
  Antibacterial activity (MIC): 2 µg/mL
[7]
  Antibacterial activity (MIC): 2 µg/mL
E. coli J2175
  Antibacterial activity (MIC): 16 µg/mL
[8]
  Antibacterial activity (MIC): 16 µg/mL
E. coli UBMS 90-5
  Antibacterial activity (MIC): 16 µg/mL
E. coli UBMS 88-1 (tetB)
  Antibacterial activity (MIC): > 32 µg/mL
E. coli MC4100 TetB
  Antibacterial activity (MIC): > 32 µg/mL
E. coli BAJ9003
  Antibacterial activity (MIC): 1 µg/mL
[9]
  Antibacterial activity (MIC): 2 µg/mL
[10]
  Antibacterial activity (MIC): 8 µg/mL
[11]
  Antibacterial activity (MIC): 8 µg/mL
E. coli PRP1 TetA
  Antibacterial activity (MIC): > 32 µg/mL
E. coli UBMS 89-1 (tetM)
  Antibacterial activity (MIC): 32 µg/mL
E. coli J3272 TetC
  Antibacterial activity (MIC): 32 µg/mL
E. coli MC4100 Tet sens.
  Antibacterial activity (MIC): 2 µg/mL
E. coli ATCC 25922
  Antibacterial activity (MIC): 8 µg/mL
[12]
  Antibacterial activity (MIC): > 32 µg/mL
[13]
  Antibacterial activity (MIC): 2 µg/mL
S. mariescens FDOR 8733
  Antibacterial activity (MIC): > 32 µg/mL
E. coli J3272 TetD
  Antibacterial activity (MIC): 4 µg/mL
[14]
  Antibacterial activity (MIC): 32 µg/mL
S. aureus ROSE (MP)
  Antibacterial activity (MIC): > 32 µg/mL
E. coli UBMS 90-4 (tetM)
  Antibacterial activity (MIC): 16 µg/mL
E. faecalis 12201
  Antibacterial activity (MIC): 8 µg/mL

## CN(C)CC(=O)Nc1cc(N(C)C)c2c(c1O)C(=O)C1=C(O)[C@]3(O)C(=O)C(C(=O)NCN4CCOCC4)=C(O)[C@@H](N(C)C)C3CC1C2 (stereo partly shown) [GGG]
[1]
  Antibacterial activity (MIC): 0.25 µg/mL
E. faecalis ATCC 29212
  Antibacterial activity (MIC): 0.06 µg/mL
S. aureus NEMC 8769/89-4
  Antibacterial activity (MIC): 0.25 µg/mL
[2]
  Antibacterial activity (MIC): 0.12 µg/mL
E. coli #311 (MP)
  Antibacterial activity (MIC): 0.25 µg/mL
[3]
  Antibacterial activity (MIC): 0.12 µg/mL
[4]
  Antibacterial activity (MIC): 2 µg/mL
[5]
  Antibacterial activity (MIC): 8 µg/mL
[6]
  Antibacterial activity (MIC): 0.12 µg/mL
[7]
  Antibacterial activity (MIC): 0.25 µg/mL
E. coli J2175
  Antibacterial activity (MIC): 0.25 µg/mL
[8]
  Antibacterial activity (MIC): 1 µg/mL
E. coli UBMS 90-5
  Antibacterial activity (MIC): 0.25 µg/mL
E. coli UBMS 88-1 (tetB)
  Antibacterial activity (MIC): 0.25 µg/mL
E. coli MC4100 TetB
  Antibacterial activity (MIC): 0.25 µg/mL
E. coli BAJ9003
  Antibacterial activity (MIC): 0.03 µg/mL
[9]
  Antibacterial activity (MIC): 0.12 µg/mL
[10]
  Antibacterial activity (MIC): 0.5 µg/mL
[11]
  Antibacterial activity (MIC): 0.25 µg/mL
E. coli PRP1 TetA
  Antibacterial activity (MIC): 1 µg/mL
E. coli UBMS 89-1 (tetM)
  Antibacterial activity (MIC): 0.12 µg/mL
E. coli J3272 TetC
  Antibacterial activity (MIC): 1 µg/mL
E. coli MC4100 Tet sens.
  Antibacterial activity (MIC): 0.06 µg/mL
E. coli ATCC 25922
  Antibacterial activity (MIC): 0.12 µg/mL
[12]
  Antibacterial activity (MIC): 2 µg/mL
[13]
  Antibacterial activity (MIC): 0.12 µg/mL
S. mariescens FDOR 8733
  Antibacterial activity (MIC): 4 µg/mL
E. coli J3272 TetD
  Antibacterial activity (MIC): 0.12 µg/mL
[14]
  Antibacterial activity (MIC): 0.5 µg/mL
S. aureus ROSE (MP)
  Antibacterial activity (MIC): 2 µg/mL
E. coli UBMS 90-4 (tetM)
  Antibacterial activity (MIC): 0.25 µg/mL
E. faecalis 12201
  Antibacterial activity (MIC): 0.12 µg/mL

— USRE40086E1, “Method for treating bacterial infection with novel 7-substituted-9-substituted amino 6-demethyl-6-deoxytetracyclines” (Wyeth Holdings Corporation, priority 1991, dated 2008)
